Reference: patent publication US20240067651A1 (Biohaven Therapeutics Ltd., priority 2019, published 2024)

What was measured:
[1] = Caco-2 Permeability Assay; type: in vitro ADME, human; conditions: human
How it was run: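 Bidirectional transport at 37 °C for 90 min, 10 μM donor concentration, with or without Pgp inhibitor, across 21-day Caco-2 monolayers with TEER >600 […] in HEPES-buffered HBSS, pH 7.4. LC-MS/MS of donor and receiver samples gives Papp, B→A/A→B efflux ratio and mass recovery.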

[2] = Stability in Simulated Intestinal Fluid (SIF); type: in vitro ADME; set-up: key: % parent compound remaining relative to 0-minute sample
How it was run: (§1)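 2 μg/mL final; SGF + pepsin pH 1.2 or SIF + pancreatin pH 6.8; 37° C, 150 rpm, 0–60 min. ACN quench with propranolol IS, LC-MS/MS. % parent vs 0 min; t1/2 from ln plot.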

Plasma Stability = type: in vitro ADME, human
How it was run: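 Parent compound quantified by LC-MS/MS after acetonitrile precipitation, reported as percent of control remaining (triplicate). Incubation: 1 hour, 37° C, fresh human plasma, compound at 1 μM.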

[3] = Stability in Simulated Gastric Fluid (SGF); type: in vitro ADME; set-up: key: % parent compound remaining relative to 0-minute sample
How it was run: as §1

[4] = Caco-2, pH 7.4, Caco-2 monolayer
[5] = simulated intestinal fluid, at 1 h
[6] = simulated gastric fluid, at 1 h
[7] = Caco-2, pH 7.4, donor 10 μM, 90 minutes, 37° C., direction not given
[8] = bare number, no % and no time given
[9] = % remaining at 1 h, human plasma, 1 μM, 37° C.
[10] = % @ 1 h (remaining) in simulated intestinal fluid
[11] = % @ 1 h (remaining) in human plasma
[12] = % @ 1 h (remaining) in simulated gastric fluid
[13] = % remaining at 1 h in simulated intestinal fluid
[14] = % remaining at 1 h in human plasma
[15] = % remaining at 1 h in simulated gastric fluid
[16] = Caco-2, pH 7.4, Caco-2 monolayer, the 17th table
[17] = % remaining at 1 h in simulated intestinal fluid, the 17th table
[18] = % remaining at 1 h in human plasma, the 17th table
[19] = % remaining at 1 h in simulated gastric fluid, the 17th table
[20] = bare number, unit or time not given

CC(C)C[C@@H](N)C(=O)OCSc1nc(=O)c2c(ccn2COC(=O)[C@H](N)CC(C)C)n1CCOC(C)C.O=C(O)C(F)(F)F.O=C(O)C(F)(F)F [Example 325, bis(trifluoroacetic acid) {[5-({[(2R)-2-amino-4-methylpentanoyl]oxy}methyl)-4-oxo-1-[2-(propan-2-yloxy)ethyl]-1H,4H,5H-pyrrolo[3,2-d]pyrimidin-2-yl]sulfanyl}methyl (2R)-2-amino-4-methylpentanoate]
Papp at 90 min, 10 µM ([1]; Caco-2, pH 7.4): 0.908 ×10⁻⁶ cm/s | SIF ([2]; % remaining @ 1 h): 3%@ 1 h | human Plasma stability (Plasma Stability; % remaining @ 1 h): 1%@ 1 h | SGF ([3]; % remaining @ 1 h): 99%@ 1 h

CC(C)OCCn1c(=S)n(COC(=O)[C@@H](C)N)c(=O)c2c1ccn2COC(=O)[C@@H](C)N.O=C(O)C(F)(F)F.O=C(O)C(F)(F)F [Example 293, bis(trifluoroacetic acid) [3-({[(2R)-2-aminopropanoyl]oxy}methyl)-4-oxo-1-[2-(propan-2-yloxy)ethyl]-2-sulfanylidene-1H,2H,3H,4H,5H-pyrrolo[3,2-d]pyrimidin-5-yl]methyl (2R)-2-aminopropanoate]
Papp at 90 min, 10 µM ([1]; Caco-2, pH 7.4): < 1.06 ×10⁻⁶ cm/s | SIF ([2]; % remaining @ 1 h): 29% @ 1 h | human Plasma stability (Plasma Stability; % remaining @ 1 h): 25% @ 1 h | SGF ([3]; % remaining @ 1 h): 100% @ 1 h

CC(C)COC(=O)n1ccc2c1c(=O)[nH]c(=S)n2CCOC(C)C [Example 232]
Papp at 90 min, 10 µM [1, 4]: 0.256 ×10⁻⁶ cm/s | SIF [2, 5]: 3% remaining | human Plasma stability (Plasma Stability; human plasma, at 1 h): 2% remaining | SGF [3, 6]: 98% remaining

CC(C)OCCn1c(=S)[nH]c(=O)c2c1ccn2COC(=O)[C@H](N)C(C)C [Example 300, trifluoroacetic acid {4-oxo-1-[2-(propan-2-yloxy)ethyl]-2-sulfanylidene-1H,2H,3H,4H,5H-pyrrolo[3,2-d]pyrimidin-5-yl}methyl (2R)-2-amino-3-methylbutanoate]
Papp at 90 min, 10 µM ([1]; Caco-2, pH 7.4): 12.9 ×10⁻⁶ cm/s | SIF ([2]; % remaining @ 1 h): 70% @ 1 h | human Plasma stability (Plasma Stability; % remaining @ 1 h): 2% @ 1 h | SGF ([3]; % remaining @ 1 h): 100% @ 1 h

CC(C)OCCn1c(SCOC(=O)N(C)CC(F)(F)F)nc(=O)c2c1ccn2COC(=O)N(C)CC(F)(F)F [Example 95, {2-[{{[methyl(2,2,2-trifluoroethyl)carbamoyl]oxy}methyl)sulfanyl]-4-oxo-1-[2-(propan-2-yloxy)ethyl]-1H, 4H,5H-pyrrolo[3,2-d]pyrimidin-5-yl}methyl N-methyl-N-(2,2,2-trifluoroethyl)carbamate]
Papp at 90 min, 10 µM [1, 7]: 18.8 ×10⁻⁶ cm/s | SIF [2, 8]: 95 | human Plasma stability (Plasma Stability; [9]): 99% remaining | SGF [3, 8]: 100

CC(C)OCCn1c(SCOC(=O)N(C)C(C)(C)C)nc(=O)c2c1ccn2COC(=O)N(C)C(C)(C)C.O=C(O)C(F)(F)F [Example 168]
Papp at 90 min, 10 µM [1, 4]: 28.1 ×10⁻⁶ cm/s | SIF [2, 10]: 94% @ 1 h | human Plasma stability (Plasma Stability; [11]): 88% @ 1 h | SGF [3, 12]: 100% @ 1 h

CC(C)C[C@H](N)C(=O)OCn1c(=O)c2c(ccn2COC(=O)[C@@H](N)CC(C)C)n(CCOC(C)C)c1=S.O=C(O)C(F)(F)F.O=C(O)C(F)(F)F [Example 322, bis(trifluoroacetic acid) [3-({[(2S)-2-amino-4-methylpentanoyl]oxy}methyl)-4-oxo-1-[2-(propan-2-yloxy)ethyl]-2-sulfanylidene-1H,2H,3H,4H,5H-pyrrolo[3,2-d]pyrimidin-5-yl]methyl (2S)-2-amino-4-methylpentanoate]
Papp at 90 min, 10 µM ([1]; Caco-2, pH 7.4): < 0.106 ×10⁻⁶ cm/s | SIF ([2]; % remaining @ 1 h): 61%@ 1 h | human Plasma stability (Plasma Stability; % remaining @ 1 h): 64%@ 1 h | SGF ([3]; % remaining @ 1 h): 56%@ 1 h

CC(C)OCCn1c(=S)[nH]c(=O)c2c1ccn2COC(=O)[C@@H]1CCC(=O)N1C(=O)OC(C)(C)C [Example 85, 1-tert-Butyl 2-{4-oxo-1-[2-(propan-2-yloxy)ethyl]-2-sulfanylidene-1H,2H,3H,4H,5H-pyrrolo[3,2-d]pyrimidin-5-yl}methyl (2S)-5-oxopyrrolidine-1,2-dicarboxylate]
Papp at 90 min, 10 µM [1, 7]: 6.54 ×10⁻⁶ cm/s | SIF ([2]; % remaining at 1 h, SIF with pancreatin pH 6.8, 2 μg/mL, 37° C.): 90% | human Plasma stability (Plasma Stability; [9]): 30% | SGF ([3]; % remaining at 1 h, SGF with pepsin pH 1.2, 2 μg/mL, 37° C.): 78%

Cc1cccc(N(C)C(=O)OCSc2nc(=O)c3[nH]ccc3n2CCOC(C)C)c1 [Example 245]
Papp at 90 min, 10 µM [1, 4]: 21.6 ×10⁻⁶ cm/s | SIF [2, 5]: 99% remaining | human Plasma stability (Plasma Stability; human plasma, at 1 h): 63% remaining | SGF [3, 6]: 99% remaining

COC(=O)OCSc1nc(=O)c2c(ccn2COC(=O)OC)n1CCOC(C)C [Example 198]
Papp at 90 min, 10 µM ([1]; Caco-2, pH 7.4, Caco-2 monolayer, the 15th table): 11.4 ×10⁻⁶ cm/s | SIF ([2]; % remaining at 1 h in simulated intestinal fluid, the 15th table): 74% remaining | human Plasma stability (Plasma Stability; % remaining at 1 h in human plasma, the 15th table): 0% remaining | SGF ([3]; % remaining at 1 h in simulated gastric fluid, the 15th table): 79% remaining

CC(C)OCCn1c(=S)[nH]c(=O)c2c1ccn2COC(=O)CCNC(=O)[C@@H](N)Cc1ccc(O)cc1.O=C(O)C(F)(F)F [Example 50]
Papp at 90 min, 10 µM [1, 4]: 0.215 ×10⁻⁶ cm/s | SIF [2, 13]: 75% remaining | human Plasma stability (Plasma Stability; [14]): 25% remaining | SGF [3, 15]: 99% remaining

CC(C)OCCn1c(=S)[nH]c(=O)c2c1ccn2COC(=O)CCCCNC(=O)[C@H](CO)NC(=O)OC(C)(C)C.O=C(O)C(F)(F)F [Example 41]
Papp at 90 min, 10 µM [1, 4]: 1.15 ×10⁻⁶ cm/s | SIF [2, 13]: 87% remaining | human Plasma stability (Plasma Stability; [14]): 21% remaining | SGF [3, 15]: 78% remaining

CCCCCOC(=O)OCSc1nc(=O)c2c(ccn2COC(=O)OCCCCC)n1CCOC(C)C [Example 217]
Papp at 90 min, 10 µM [1, 16]: 5.32 ×10⁻⁶ cm/s | SIF [2, 17]: 1% remaining | human Plasma stability (Plasma Stability; [18]): 5% remaining | SGF [3, 19]: 88% remaining

CCCCCCCOC(=O)OCn1ccc2c1c(=O)nc(S)n2CCOC(C)C [Example 219]
Papp at 90 min, 10 µM [1, 16]: 0.847 ×10⁻⁶ cm/s | SIF [2, 17]: 23% remaining | human Plasma stability (Plasma Stability; [18]): 21% remaining | SGF [3, 19]: 98% remaining

CC(C)OCCn1c(=S)[nH]c(=O)c2c1ccn2COC(=O)CCCCOC(=O)[C@H](Cc1ccccc1)NC(=O)OC(C)(C)C [Example 334, {4-oxo-1-[2-(propan-2-yloxy)ethyl]-2-sulfanylidene-1H,2H,3H,4H,5H-pyrrolo[3,2-d]pyrimidin-5-yl}methyl 5-{[(2S)-2-{[(tert-butoxy)carbonyl]amino}-3-phenylpropanoyl]oxy}pentanoate]
Papp at 90 min, 10 µM ([1]; Caco-2, pH 7.4): 6.26 ×10⁻⁶ cm/s | SIF [2, 20]: 2 | human Plasma stability (Plasma Stability; % remaining @ 1 h): 58% remaining | SGF [3, 20]: 90

Cc1cccc(N(C)C(=O)OCSc2nc(=O)c3c(ccn3COC(=O)N(C)c3cccc(C)c3)n2CCOC(C)C)c1 [Example 246]
Papp at 90 min, 10 µM [1, 4]: 21.7 ×10⁻⁶ cm/s | SIF [2, 5]: 99% remaining | human Plasma stability (Plasma Stability; human plasma, at 1 h): 99% remaining | SGF [3, 6]: 98% remaining

CNCC(=O)NCCCCC(=O)OCn1ccc2c1c(=O)[nH]c(=S)n2CCOC(C)C.O=C(O)C(F)(F)F [Example 55]
Papp at 90 min, 10 µM [1, 4]: 0.244 ×10⁻⁶ cm/s | SIF [2, 13]: 98% remaining | human Plasma stability (Plasma Stability; [14]): 1% remaining | SGF [3, 15]: 100%

COC(=O)n1ccc2c1c(=O)[nH]c(=S)n2CCOC(C)C [Example 233]
Papp at 90 min, 10 µM [1, 4]: 0.314 ×10⁻⁶ cm/s | SIF [2, 5]: 70% remaining | human Plasma stability (Plasma Stability; human plasma, at 1 h): 2% remaining | SGF [3, 6]: 98% remaining

CC(C)OCCn1c(SCOC(=O)N(C)C(C)(C)C)nc(=O)c2[nH]ccc21.O=C(O)C(F)(F)F [Example 167]
Papp at 90 min, 10 µM [1, 4]: 17.8 ×10⁻⁶ cm/s | SIF [2, 10]: 99% @ 1 h | human Plasma stability (Plasma Stability; [11]): 98% @ 1 h | SGF [3, 12]: 99% @ 1 h

CC(C)OCCn1c(=S)n(COC(=O)N(CC(F)(F)F)CC(F)(F)F)c(=O)c2c1ccn2COC(=O)N(CC(F)(F)F)CC(F)(F)F [Example 98, [3-({[bis(2,2,2-trifluoroethyl)carbamoyl]oxy}methyl)-4-oxo-1-[2-(propan-2-yloxy)ethyl]-2-sulfanylidene-1H, 2H,3H,4H,5H-pyrrolo[3,2-d]pyrimidin-5-yl]methyl N,N-bis(2,2,2-trifluoroethyl)carbamate]
Papp at 90 min, 10 µM [1, 7]: 6.53 ×10⁻⁶ cm/s | SIF [2, 8]: 80 | human Plasma stability (Plasma Stability; [9]): 99% remaining | SGF [3, 8]: 95
